Source: patent US8779004B2, “Stable emulsion formulations” (Amgen, Inc., priority 2006, dated 2014)

Experiment: Short-term storage stability of emulsions (drug conc., pH, particle size)
Type: physicochemical
Conditions: for stability in the emulsion formulation: over 12 weeks, 5° C. and 40° C.; for Cinacalcet conc. / D(4, 3) / pH: emulsion
From the text: This Example illustrates the effect of the storage temperature on short-term stability of the formulations of the invention as measured by pH and the size of the droplets. The results of short term stability of cinacalcet at different temperatures and varying TRIS buffer concentrations are presented in Table 8. Cinacalcet was stable in the emulsion formulation over 12 weeks. The pH of the emulsion is lower over time for both placebo and cinacalcet emulsions. The drop in pH is less at lower storage temperature and higher TRIS concentration.
The results of short-term stability of cinacalcet at different temperatures and varying DEA buffer concentrations are presented in Table 9. Cinacalcet was stable in the emulsion formulation over 12 weeks. pH of the emulsion is lower over time for both placebo and cinacalcet emulsion. The drop in pH is less at lower storage temperature and higher DEA concentration.

With `C[C@@H](NCCCc1cccc(C(F)(F)F)c1)c1cccc2ccccc12` [Cinacalcet, N-(1-(R)-(1-naphthyl)ethyl]-3-[3-(trifluoromethyl)phenyl]-1-aminopropane] the “stability in the emulsion formulation” value (DEA buffered emulsion) was “stable”, the “stability in the emulsion formulation” value (TRIS buffered emulsion) was “stable” and the Cinacalcet conc. (DEA 0.05%, 5° C., 0 weeks) was 4.42 mg/mL. The D(4, 3) (DEA 0.05%, 5° C., 0 weeks) was 0.39 µm, the pH (DEA 0.05%, 5° C., 0 weeks) was 8.77 and the Cinacalcet conc. (DEA 0.05%, 5° C., 2 weeks) was 4.14 mg/mL. It also gave a D(4, 3) (DEA 0.05%, 5° C., 2 weeks) of 0.39 µm, a pH (DEA 0.05%, 5° C., 2 weeks) of 8.64 and a Cinacalcet conc. (DEA 0.05%, 5° C., 4 weeks) of 4.35 mg/mL. For the same molecule, the D(4, 3) (DEA 0.05%, 5° C., 4 weeks) was 0.4 µm, the pH (DEA 0.05%, 5° C., 4 weeks) was 8.65 and the Cinacalcet conc. (DEA 0.05%, 5° C., 6 weeks) was 4.28 mg/mL. The D(4, 3) (DEA 0.05%, 5° C., 6 weeks) was 0.76 µm, the pH (DEA 0.05%, 5° C., 6 weeks) was 8.59 and the Cinacalcet conc. (DEA 0.05%, 5° C., 8 weeks) was 4.43 mg/mL. For the same molecule, the D(4, 3) (DEA 0.05%, 5° C., 8 weeks) was 0.4 µm, the pH (DEA 0.05%, 5° C., 8 weeks) was 8.67 and the Cinacalcet conc. (DEA 0.05%, 5° C., 12 weeks) was 4.29 mg/mL. For the same molecule, the D(4, 3) (DEA 0.05%, 5° C., 12 weeks) was 0.4 µm, the pH (DEA 0.05%, 5° C., 12 weeks) was 8.58 and the Cinacalcet conc. (DEA 0.05%, 40° C., 0 weeks) was 4.42 mg/mL. The D(4, 3) (DEA 0.05%, 40° C., 0 weeks) was 0.39 µm, the pH (DEA 0.05%, 40° C., 0 weeks) was 8.77 and the Cinacalcet conc. (DEA 0.05%, 40° C., 2 weeks) was 4.15 mg/mL. The D(4, 3) (DEA 0.05%, 40° C., 2 weeks) was 0.39 µm, the pH (DEA 0.05%, 40° C., 2 weeks) was 8.46 and the Cinacalcet conc. (DEA 0.05%, 40° C., 4 weeks) was 4.30 mg/mL. The D(4, 3) (DEA 0.05%, 40° C., 4 weeks) was 0.4 µm, the pH (DEA 0.05%, 40° C., 4 weeks) was 8.36 and the Cinacalcet conc. (DEA 0.05%, 40° C., 6 weeks) was 4.28 mg/mL. For the same molecule, the D(4, 3) (DEA 0.05%, 40° C., 6 weeks) was 0.39 µm, the pH (DEA 0.05%, 40° C., 6 weeks) was 8.25 and the Cinacalcet conc. (DEA 0.05%, 40° C., 8 weeks) was 4.39 mg/mL. The D(4, 3) (DEA 0.05%, 40° C., 8 weeks) was 0.43 µm, the pH (DEA 0.05%, 40° C., 8 weeks) was 8.29 and the Cinacalcet conc. (DEA 0.05%, 40° C., 12 weeks) was 4.31 mg/mL. It also gave a D(4, 3) (DEA 0.05%, 40° C., 12 weeks) of 0.43 µm, a pH (DEA 0.05%, 40° C., 12 weeks) of 8.12 and a Cinacalcet conc. (DEA 0.30%, 5° C., 0 weeks) of 4.78 mg/mL. The D(4, 3) (DEA 0.30%, 5° C., 0 weeks) was 0.36 µm, the pH (DEA 0.30%, 5° C., 0 weeks) was 9.12 and the Cinacalcet conc. (DEA 0.30%, 5° C., 2 weeks) was 4.60 mg/mL. It also gave a D(4, 3) (DEA 0.30%, 5° C., 2 weeks) of 0.35 µm, a pH (DEA 0.30%, 5° C., 2 weeks) of 9.07 and a Cinacalcet conc. (DEA 0.30%, 5° C., 4 weeks) of 4.67 mg/mL. For the same molecule, the D(4, 3) (DEA 0.30%, 5° C., 4 weeks) was 0.37 µm, the pH (DEA 0.30%, 5° C., 4 weeks) was 9.12 and the Cinacalcet conc. (DEA 0.30%, 5° C., 6 weeks) was 4.60 mg/mL. For the same molecule, the D(4, 3) (DEA 0.30%, 5° C., 6 weeks) was 0.37 µm, the pH (DEA 0.30%, 5° C., 6 weeks) was 9.11 and the Cinacalcet conc. (DEA 0.30%, 5° C., 8 weeks) was 4.79 mg/mL. For the same molecule, the D(4, 3) (DEA 0.30%, 5° C., 8 weeks) was 0.37 µm, the pH (DEA 0.30%, 5° C., 8 weeks) was 9.15 and the Cinacalcet conc. (DEA 0.30%, 5° C., 12 weeks) was 4.66 mg/mL. For the same molecule, the D(4, 3) (DEA 0.30%, 5° C., 12 weeks) was 0.36 µm, the Cinacalcet conc. (DEA 0.30%, 40° C., 0 weeks) was 4.78 mg/mL and the D(4, 3) (DEA 0.30%, 40° C., 0 weeks) was 0.36 µm. It also gave a pH (DEA 0.30%, 40° C., 0 weeks) of 9.12, a Cinacalcet conc. (DEA 0.30%, 40° C., 2 weeks) of 4.58 mg/mL and a D(4, 3) (DEA 0.30%, 40° C., 2 weeks) of 0.36 µm. For the same molecule, the pH (DEA 0.30%, 40° C., 2 weeks) was 8.98, the Cinacalcet conc. (DEA 0.30%, 40° C., 4 weeks) was 4.73 mg/mL and the D(4, 3) (DEA 0.30%, 40° C., 4 weeks) was 0.36 µm. For the same molecule, the pH (DEA 0.30%, 40° C., 4 weeks) was 8.99, the Cinacalcet conc. (DEA 0.30%, 40° C., 6 weeks) was 4.65 mg/mL and the D(4, 3) (DEA 0.30%, 40° C., 6 weeks) was 0.36 µm. The pH (DEA 0.30%, 40° C., 6 weeks) was 8.93, the Cinacalcet conc. (DEA 0.30%, 40° C., 8 weeks) was 4.83 mg/mL and the D(4, 3) (DEA 0.30%, 40° C., 8 weeks) was 0.37 µm. For the same molecule, the pH (DEA 0.30%, 40° C., 8 weeks) was 8.95, the Cinacalcet conc. (DEA 0.30%, 40° C., 12 weeks) was 4.71 mg/mL and the D(4, 3) (DEA 0.30%, 40° C., 12 weeks) was 0.38 µm. For the same molecule, the Cinacalcet conc. (TRIS 5 mM, 5° C., 0 weeks) was 4.43 mg/mL, the D(4, 3) (TRIS 5 mM, 5° C., 0 weeks) was 0.31 µm and the pH (TRIS 5 mM, 5° C., 0 weeks) was 8.80. It also gave a Cinacalcet conc. (TRIS 5 mM, 5° C., 2 weeks) of 4.18 mg/mL, a D(4, 3) (TRIS 5 mM, 5° C., 2 weeks) of 0.31 µm and a pH (TRIS 5 mM, 5° C., 2 weeks) of 8.69. It also gave a Cinacalcet conc. (TRIS 5 mM, 5° C., 4 weeks) of 4.38 mg/mL, a D(4, 3) (TRIS 5 mM, 5° C., 4 weeks) of 0.3 µm and a pH (TRIS 5 mM, 5° C., 4 weeks) of 8.65. For the same molecule, the Cinacalcet conc. (TRIS 5 mM, 5° C., 6 weeks) was 4.33 mg/mL, the D(4, 3) (TRIS 5 mM, 5° C., 6 weeks) was 0.3 µm and the pH (TRIS 5 mM, 5° C., 6 weeks) was 8.59. The Cinacalcet conc. (TRIS 5 mM, 5° C., 8 weeks) was 4.47 mg/mL, the D(4, 3) (TRIS 5 mM, 5° C., 8 weeks) was 0.31 µm and the pH (TRIS 5 mM, 5° C., 8 weeks) was 8.60. It also gave a Cinacalcet conc. (TRIS 5 mM, 5° C., 12 weeks) of 4.32 mg/mL, a D(4, 3) (TRIS 5 mM, 5° C., 12 weeks) of 0.31 µm and a pH (TRIS 5 mM, 5° C., 12 weeks) of 8.50. It also gave a Cinacalcet conc. (TRIS 5 mM, 40° C., 0 weeks) of 4.43 mg/mL, a D(4, 3) (TRIS 5 mM, 40° C., 0 weeks) of 0.31 µm and a pH (TRIS 5 mM, 40° C., 0 weeks) of 8.80. It also gave a Cinacalcet conc. (TRIS 5 mM, 40° C., 2 weeks) of 4.17 mg/mL, a D(4, 3) (TRIS 5 mM, 40° C., 2 weeks) of 0.31 µm and a pH (TRIS 5 mM, 40° C., 2 weeks) of 8.41. It also gave a Cinacalcet conc. (TRIS 5 mM, 40° C., 4 weeks) of 4.36 mg/mL, a D(4, 3) (TRIS 5 mM, 40° C., 4 weeks) of 0.31 µm and a pH (TRIS 5 mM, 40° C., 4 weeks) of 8.29. For the same molecule, the Cinacalcet conc. (TRIS 5 mM, 40° C., 6 weeks) was 4.29 mg/mL, the D(4, 3) (TRIS 5 mM, 40° C., 6 weeks) was 0.47 µm and the pH (TRIS 5 mM, 40° C., 6 weeks) was 8.20. It also gave a Cinacalcet conc. (TRIS 5 mM, 40° C., 8 weeks) of 4.45 mg/mL, a D(4, 3) (TRIS 5 mM, 40° C., 8 weeks) of 0.48 µm and a pH (TRIS 5 mM, 40° C., 8 weeks) of 8.11. It also gave a Cinacalcet conc. (TRIS 5 mM, 40° C., 12 weeks) of 4.33 mg/mL, a D(4, 3) (TRIS 5 mM, 40° C., 12 weeks) of 0.36 µm and a pH (TRIS 5 mM, 40° C., 12 weeks) of 8.12. It also gave a Cinacalcet conc. (TRIS 20 mM, 5° C., 0 weeks) of 4.92 mg/mL, a D(4, 3) (TRIS 20 mM, 5° C., 0 weeks) of 0.29 µm and a pH (TRIS 20 mM, 5° C., 0 weeks) of 9.13. The Cinacalcet conc. (TRIS 20 mM, 5° C., 2 weeks) was 4.47 mg/mL, the D(4, 3) (TRIS 20 mM, 5° C., 2 weeks) was 0.29 µm and the pH (TRIS 20 mM, 5° C., 2 weeks) was 8.98. The Cinacalcet conc. (TRIS 20 mM, 5° C., 4 weeks) was 4.79 mg/mL, the D(4, 3) (TRIS 20 mM, 5° C., 4 weeks) was 0.29 µm and the pH (TRIS 20 mM, 5° C., 4 weeks) was 8.99. It also gave a Cinacalcet conc. (TRIS 20 mM, 5° C., 6 weeks) of 4.72 mg/mL, a D(4, 3) (TRIS 20 mM, 5° C., 6 weeks) of 0.28 µm and a pH (TRIS 20 mM, 5° C., 6 weeks) of 8.87. For the same molecule, the Cinacalcet conc. (TRIS 20 mM, 5° C., 8 weeks) was 4.91 mg/mL, the D(4, 3) (TRIS 20 mM, 5° C., 8 weeks) was 0.29 µm and the pH (TRIS 20 mM, 5° C., 8 weeks) was 9.02. It also gave a Cinacalcet conc. (TRIS 20 mM, 5° C., 12 weeks) of 4.76 mg/mL, a D(4, 3) (TRIS 20 mM, 5° C., 12 weeks) of 0.29 µm and a pH (TRIS 20 mM, 5° C., 12 weeks) of 8.93. The Cinacalcet conc. (TRIS 20 mM, 40° C., 0 weeks) was 4.92 mg/mL, the D(4, 3) (TRIS 20 mM, 40° C., 0 weeks) was 0.29 µm and the pH (TRIS 20 mM, 40° C., 0 weeks) was 9.13. The Cinacalcet conc. (TRIS 20 mM, 40° C., 2 weeks) was 4.48 mg/mL, the D(4, 3) (TRIS 20 mM, 40° C., 2 weeks) was 0.29 µm and the pH (TRIS 20 mM, 40° C., 2 weeks) was 8.82. It also gave a Cinacalcet conc. (TRIS 20 mM, 40° C., 4 weeks) of 4.75 mg/mL, a D(4, 3) (TRIS 20 mM, 40° C., 4 weeks) of 0.29 µm and a pH (TRIS 20 mM, 40° C., 4 weeks) of 8.79. The Cinacalcet conc. (TRIS 20 mM, 40° C., 6 weeks) was 4.73 mg/mL, the D(4, 3) (TRIS 20 mM, 40° C., 6 weeks) was 0.29 µm and the pH (TRIS 20 mM, 40° C., 6 weeks) was 8.75. It also gave a Cinacalcet conc. (TRIS 20 mM, 40° C., 8 weeks) of 4.96 mg/mL, a D(4, 3) (TRIS 20 mM, 40° C., 8 weeks) of 0.29 µm and a pH (TRIS 20 mM, 40° C., 8 weeks) of 8.76. The Cinacalcet conc. (TRIS 20 mM, 40° C., 12 weeks) was 4.82 mg/mL, the D(4, 3) (TRIS 20 mM, 40° C., 12 weeks) was 0.29 µm and the pH (TRIS 20 mM, 40° C., 12 weeks) was 8.63.
